# Where two headings read alike, the source gives them in different places.
# Tests used:
# [1] = Oral bioavailability in rats, Method A (plasma PK); assay type: in vivo, Sprague Dawley rats; conditions: rat plasma
# Description: Animals. Male Sprague Dawley rats were used in these studies. Animals were randomly assigned to treatment groups and were fasted for 4 h before dosing.
# Drugs. Test compounds were dissolved in normal saline and administered intravenously (iv) or orally (po) at a dose of 10 mg/kg (calculated based on freebase) and at a volume of 5 mL/kg body weight. Compounds were tested as the racemates or pure enantiomers, as indicated.
# Sample Collection and Bioanalysis. Blood samples were collected under 2,2,2-tribromoethanol anesthesia (150 mg/kg, ip) from the orbital sinus at 0.083, 0.25, 0.5, 1, 2, 4, 8 and 24 h (4 animals per time point) into microcontainers containing K2EDTA. Immediately after collection of blood, rats were euthanized by […]. All samples were immediately processed, flash-frozen, and stored at −70° C. until subsequent analysis. Plasma samples were separated by centrifugation of whole blood and aliquots (50 μL) were mixed with 200 μL of internal standard solution (400 ng/mL in 1:1 v/v CH3CN:MeOH). After mixing by pipetting and centrifuging for 4 min at 6,000 rpm, 0.5 μL of each supernatant was analyzed for drug using a fit-for-purpose liquid chromatography-tandem mass spectrometry (LC-MS/MS) method, with authentic samples of each analyte used for calibration and identification.
# Data Analysis. The drug concentrations of samples below the lower limit of quantitation (LLOQ) were designated as zero. Pharmacokinetic data analysis was performed using noncompartmental, bolus injection or extravascular input analysis models in WinNonlin 5.2 (PharSight). Data points below LLOQ were presented as missing to improve validity of t1/2 calculations.
# [2] = Oral bioavailability in monkeys (plasma PK); assay type: in vivo, Cynomolgus monkeys; conditions: for AUC(0-inf): male, cynomolgus monkey
# Description: Animals. Male Cynomolgus monkeys were used in these studies. Animals were randomly assigned to treatment groups and were fasted overnight before dosing.
# (§1) Drugs. Compound 2R was dissolved in a vehicle consisting of normal saline. It was then administered intravenously (iv) or orally (po) at a dose of 1 mg/kg (calculated based on freebase) and at a volume of 2 mL/kg body weight (n=3 per dosing route).
# (§2) Sample Collection and Bioanalysis. Blood samples (approximately 500 μL) were collected under manual restraint from the cephalic vein at 0.08, 0.25, 0.5, 1, 2, 4, 8, and 24 h ([…]) into K2EDTA tubes and placed on wet ice. Immediately after blood collection, plasma was harvested by centrifugation at 3,000 g for 5 min at 4° C. within 15 minutes of collection and subsequently stored at −70±10° C. until bioanalysis. For bioanalysis, for diluted plasma samples, an aliquot of 2 μL sample was diluted with 18 μL blank matrix and the dilution factor was 10. For non-diluted samples, an aliquot of 20 μL sample was added with 300 μL internal standard (diclofenac, 60 ng/mL) in acetonitrile. The mixture was vortexed for 10 minutes and centrifuged at 5,800 rpm for 10 minutes. 90 μL of supernatant was transferred to a 96 well plate and analyzed with a fit-for-purpose LC-MS/MS method, with authentic samples of each analyte used for calibration and identification.
# Data Analysis. Pharmacokinetic parameters were estimated using the non-compartmental analysis tool of Phoenix® a WinNonlin software (Ver 8.2).
# [3] = Oral bioavailability in minipigs (plasma PK); assay type: in vivo, Bama minipigs; conditions: for AUC(0-inf): male, Bama
# Description: Animals. Male Bama minipigs were used in these studies. Animals were randomly assigned to treatment groups and were fasted overnight before dosing.
# as §1, §2
# Data Analysis. Pharmacokinetic parameters were estimated using the non-compartmental analysis tool of Phoenix® WinNonlin software (Ver 8.2).
# [4] = Stability in liver microsomes (Example 21), CD-1 mouse; assay type: in vitro ADME; conditions: male, pH 7.4, CD-1 Mouse liver microsomes, 0.5 mg/mL protein
# Description: General Procedure. Briefly, test compounds (final concentration 1 μM) were incubated in duplicate with liver microsomes from male animals of the indicated species (final protein concentration 0.5 mg/mL) in 50 mM sodium phosphate buffer (pH 7.4) with or without NADPH (1 mM). Total incubation volume was 500 μL. At 0, 5, 15, 30, and 60 min, aliquots of 50 μL were withdrawn, quenched with acetonitrile (150 μL), and analyzed for parent compound remaining using a fit-for-purpose LC-MS/MS method. Intrinsic clearance and half-life were calculated. Clearance values below zero were rounded to zero.
smiles,measurement,setting,value
"CNC1(c2ccccc2Cl)CCCCC1=O (racemic) [racemic ketamine, ketamine]",AUC(0-inf),"[1]; male, Sprague Dawley, 10 mg/kg iv, read-out: AUC0-inf (iv) (converted)",1350 ng·h/mL
same,half-life,"[1]; male, Sprague Dawley, 10 mg/kg iv, read-out: t1/2 (iv)",41.6 min
same,Cmax,"[1]; male, Sprague Dawley, 10 mg/kg po",190 ng/mL
same,AUC(0-inf),"[1]; male, Sprague Dawley, 10 mg/kg po, read-out: AUC0-inf (po) (converted)",125 ng·h/mL
same,half-life,"[1]; male, Sprague Dawley, 10 mg/kg po, read-out: t1/2 (po)",33.7 min
same,F,[1]; 10 mg/kg,9.07%
"CN[C@@]1(c2ccc(F)cc2)CCCCC1=O [Compound 2R, (R)-2-(4-fluorophenyl)-2(methylamino)cyclohexan-1-one]",AUC(0-inf),"[2]; monkey plasma, 1 mg/kg iv, read-out: AUC0-inf (iv) (converted)",964 ng·h/mL
same,AUC(0-inf),"[2]; monkey plasma, 1 mg/kg po, read-out: AUC0-inf (po) (converted)",259 ng·h/mL
same,F,"[2]; monkey plasma, 1 mg/kg",27%
same,oral bioavailability (in words),"[2]; monkeys, 1 mg/kg",moderate
same,AUC(0-inf),"[3]; minipig plasma, 1 mg/kg iv, read-out: AUC0-inf (iv) (converted)",566 ng·h/mL
same,AUC(0-inf),"[3]; minipig plasma, 1 mg/kg po, read-out: AUC0-inf (po) (converted)",242 ng·h/mL
same,F,"[3]; minipig plasma, 1 mg/kg",42.7%
same,oral bioavailability (in words),"[3]; minipigs, 1 mg/kg",good
"CN[C@]1(c2ccc(F)cc2)CCCCC1=O [Compound 2S, (S)-2-(4-fluorophenyl)-2-(methylamino)cyclohexan-1-one]",microsomal CLint at 1 μM,[4],3.5 µL/min/mg
